Laboratory results as given in the NIST ThermoML archive (doi:10.1016/j.tca.2015.08.032).
Where “and” joins values, the source holds several entries; their conditions need not be identical. Equal entries are not always repeated. ± gives the expanded uncertainty stated by the source.

Experiments:
[1] = for mass density / viscosity: 101.33 kPa, Liquid; for mass density: Pycnometric method; for Normal melting temperature: Crystal, DTA; for viscosity: Cone and plate viscometry
[2] = molar heat capacity at constant pressure; details: 101.33 kPa, Liquid, Small sample (50 mg) DSC

## Cn1cc[n+](CC(CBr)N=[N+]=[N-])c1.[Br-] (stereo not given) [1-(2-azido-3-bromopropyl)-3-methyl-3H-imidazol-1-ium bromide]
[1]; 298 K
  mass density: 1360 ± 10 kg/m3
[1]
  Normal melting temperature: 10 ± 1 °C

## C=Cn1cc[n+](CC(C[n+]2ccn(C)c2)N=[N+]=[N-])c1.[Br-].[Br-] (stereo not given)
[1]; 298 K
  mass density: 1560 ± 20 kg/m3
[1]
  Normal melting temperature: 23 ± 1 °C

## Cn1cc[n+](CC(Br)CN=[N+]=[N-])c1.N#C[N-]C#N (stereo not given)
[1]; 298 K
  mass density: 1280 ± 10 kg/m3
[1]
  Normal melting temperature: 6 ± 1 °C

## Cn1cc[n+](CC(CBr)N=[N+]=[N-])c1.N#C[N-]C#N (stereo not given)
[1]; 298 K
  viscosity: 57.01 ± 5.9 mPa·s and 56.9 ± 5.9 mPa·s
  mass density: 1310 ± 10 kg/m3
[1]; 299 K
  viscosity: 53.28 ± 5.5 mPa·s
[1]; 300 K
  viscosity: 49.6 ± 5.2 mPa·s and 49.44 ± 5.2 mPa·s
[1]; 301 K
  viscosity: 46.03 ± 4.8 mPa·s
[1]; 302 K
  viscosity: 42 ± 4.4 mPa·s and 42.05 ± 4.4 mPa·s
[1]; 303.1 K
  viscosity: 38.84 ± 4 mPa·s
[1]; 304 K
  viscosity: 35.9 ± 3.7 mPa·s and 35.89 ± 3.7 mPa·s
[1]; 306 K
  viscosity: 30.94 ± 3.2 mPa·s
[1]; 306.1 K
  viscosity: 30.9 ± 3.2 mPa·s
[1]; 307.9 K
  viscosity: 26.97 ± 2.8 mPa·s and 26.9 ± 2.8 mPa·s and 26.98 ± 2.8 mPa·s
[1]; 309.8 K
  viscosity: 23.3 ± 2.4 mPa·s
[1]; 313.9 K
  viscosity: 17.9 ± 1.9 mPa·s
[1]; 317.9 K
  viscosity: 13.9 ± 1.4 mPa·s
[1]; 322 K
  viscosity: 10.8 ± 1.1 mPa·s
[1]; 325.9 K
  viscosity: 8.8 ± 0.9 mPa·s
[1]; 331.8 K
  viscosity: 5.9 ± 0.6 mPa·s
[1]; 336 K
  viscosity: 4.8 ± 0.5 mPa·s
[1]; 339.9 K
  viscosity: 4.1 ± 0.4 mPa·s
[1]; 344 K
  viscosity: 3.5 ± 0.4 mPa·s
[1]; 347.9 K
  viscosity: 3.1 ± 0.3 mPa·s
[1]; 353 K
  viscosity: 2.5 ± 0.3 mPa·s
[1]; 357.9 K
  viscosity: 2.2 ± 0.2 mPa·s
[1]; 361.9 K
  viscosity: 2 ± 0.2 mPa·s
[1]
  Normal melting temperature: -2 ± 1 °C

## C=Cn1cc[n+](CC(C[n+]2ccn(C)c2)N=[N+]=[N-])c1.N#C[N-]C#N.N#C[N-]C#N (stereo not given)
[2]; 298 K
  molar heat capacity at constant pressure: 400 ± 25 J/K/mol
[2]; 303 K
  molar heat capacity at constant pressure: 409.7 ± 25 J/K/mol
[2]; 323 K
  molar heat capacity at constant pressure: 452 ± 28 J/K/mol
[1]; 298 K
  viscosity: 83.9 ± 9.5 mPa·s
  mass density: 1490 ± 20 kg/m3
[1]; 298.9 K
  viscosity: 66.3 ± 7.3 mPa·s
[1]; 300 K
  viscosity: 58.4 ± 6.2 mPa·s
[1]; 300.9 K
  viscosity: 53 ± 5.5 mPa·s
[1]; 303 K
  viscosity: 45.8 ± 4.8 mPa·s
[1]; 307.9 K
  viscosity: 35.6 ± 3.7 mPa·s
[1]; 312.9 K
  viscosity: 29.9 ± 3.1 mPa·s
[1]; 317.9 K
  viscosity: 26.2 ± 2.7 mPa·s
[1]; 322.9 K
  viscosity: 23.4 ± 2.4 mPa·s
[1]; 327.9 K
  viscosity: 20.8 ± 2.1 mPa·s
[1]; 332.9 K
  viscosity: 18.7 ± 1.9 mPa·s
[1]; 337.9 K
  viscosity: 17.1 ± 1.8 mPa·s
[1]; 342.9 K
  viscosity: 16.4 ± 1.7 mPa·s
[1]; 347.9 K
  viscosity: 15.8 ± 1.6 mPa·s
[1]; 353 K
  viscosity: 15.2 ± 1.6 mPa·s
[1]; 357.9 K
  viscosity: 14.6 ± 1.5 mPa·s
[1]; 362.9 K
  viscosity: 14 ± 1.4 mPa·s
[1]
  Normal melting temperature: 19 ± 1 °C

## Cn1cc[n+](CC(Br)CN=[N+]=[N-])c1.[Br-] (stereo not given) [1-(3-azido-2-bromopropyl)-3-methyl-3H-imidazol-1-ium bromide]
[1]; 298 K
  mass density: 1340 ± 10 kg/m3
[1]
  Normal melting temperature: 17 ± 1 °C
